Measurements: the supplement of paper PMC10307832

Columns and labels:
Experiment in all cases: relative viability (nuclei count vs DMSO), 5 days (fraction); higher = more cells survive
Sulindac + Palbociclib = compound: CC1=C(CC(=O)O)c2cc(F)ccc2/C1=C\c1ccc([S+](C)[O-])cc1 [Sulindac] + CC(=O)c1c(C)c2cnc(Nc3ccc(N4CCNCC4)cn3)nc2n(C2CCCC2)c1=O [Palbociclib] (partner 0.5 µM)
Procedure, shortened: (§1)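 Lung cancer cell lines in 1536-well plates were dosed by pin tool the day after seeding, either with one drug alone or with a fixed anchor-drug dose plus five library-drug doses (not always all listed) in √10 steps. After 5 days, cells were fixed and their nuclei stained in one step (final 0.05% Triton X-100, 1% formaldehyde, 1 ug/ml Hoechst), then counted on 4× images. Relative viability is the nuclei count in treated wells divided by that in vehicle wells. Values are medians of duplicate plates.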

Sulindac + Bortezomib = compound: CC1=C(CC(=O)O)c2cc(F)ccc2/C1=C\c1ccc([S+](C)[O-])cc1 [Sulindac] + CC(C)C[C@H](NC(=O)[C@H](Cc1ccccc1)NC(=O)c1cnccn1)B(O)O [Bortezomib] (partner 0.002 µM)
Procedure, shortened: as §1

[1] = compound: CN[C@@H]1C[C@H]2O[C@@](C)([C@@H]1OC)n1c3ccccc3c3c4c(c5c6ccccc6n2c5c31)C(=O)NC4 [Staurosporine] + C[C@]1(O)C[C@@H](c2nc(-c3ccc4ccc(-c5ccccc5)nc4c3)c3c(N)nccn32)C1 [Linsitinib] (partner 1 µM)
Procedure, shortened: as §1

5-Fluorouracil + OSI-027 = compound: O=c1[nH]cc(F)c(=O)[nH]1 [5-Fluorouracil] + COc1cccc2cc(-c3nc([C@H]4CC[C@H](C(=O)O)CC4)n4ncnc(N)c34)[nH]c12 [OSI-027] (partner 0.5 µM)
Procedure, shortened: as §1

Row | Cell Line | relative viability (Sulindac + Palbociclib; first compound 0.08 µM) | relative viability (Sulindac + Palbociclib; first compound 0.253 µM) | relative viability (Sulindac + Palbociclib; first compound 0.8 µM) | relative viability (Sulindac + Palbociclib; first compound 2.53 µM) | relative viability (Sulindac + Palbociclib; first compound 8 µM) | relative viability (Sulindac + Bortezomib; first compound 0.08 µM) | relative viability (Sulindac + Bortezomib; first compound 0.253 µM) | relative viability (Sulindac + Bortezomib; first compound 2.53 µM) | relative viability (Sulindac + Bortezomib; first compound 8 µM) | relative viability ([1]; first compound 0.005 µM) | relative viability ([1]; first compound 0.01581 µM) | relative viability ([1]; first compound 0.05 µM) | relative viability ([1]; first compound 0.1581 µM) | relative viability ([1]; first compound 0.5 µM) | relative viability (5-Fluorouracil + OSI-027; first compound 0.02 µM) | relative viability (5-Fluorouracil + OSI-027; first compound 0.2 µM) | relative viability (5-Fluorouracil + OSI-027; first compound 0.6325 µM) | relative viability (5-Fluorouracil + OSI-027; first compound 2 µM) | relative viability (Sulindac + Bortezomib; first compound 0.8 µM)
1 | NCI-H1651 | 0.493 | 0.471 | 0.483 | 0.554 | 0.578 | 1.01 | 0.953 | 0.958 | 1.04 | 0.827 | 0.587 | 0.331 | 0.122 | 0.0924 | 0.832 | 0.628 | 0.507 | 0.475 | 
2 | NCI-H1666 | 0.632 | 0.606 | 0.545 | 0.727 | 0.624 |  | 0.724 | 0.767 | 0.937 | 0.475 | 0.42 | 0.322 | 0.238 | 0.221 | 0.869 | 0.551 | 0.488 | 0.508 | 0.729
3 | NCI-H1734 | 0.298 | 0.345 | 0.311 | 0.32 | 0.402 | 1.01 | 0.937 | 0.914 | 1.25 | 0.849 | 0.473 | 0.294 | 0.228 | 0.164 | 0.58 | 0.655 | 0.513 | 0.398 | 0.731
4 | NCI-H1755 | 0.479 | 0.48 | 0.517 | 0.495 | 0.504 | 1.25 | 1.03 | 1.01 | 1.04 | 0.856 | 0.595 | 0.283 | 0.18 | 0.171 | 0.703 | 0.702 | 0.389 | 0.264 | 0.85
5 | NCI-H1792 | 0.646 | 0.734 |  | 0.601 | 0.635 | 1.24 | 0.995 | 0.987 | 1.24 | 0.488 | 0.287 | 0.105 | 0.114 | 0.0997 | 0.838 | 0.602 | 0.317 | 0.222 | 
6 | NCI-H1915 | 0.566 | 0.538 | 0.574 | 0.517 | 0.506 | 1.18 | 1.08 | 0.956 | 1.05 | 1.11 |  | 0.61 | 0.486 | 0.342 | 0.561 | 0.616 | 0.591 | 0.525 | 0.861
7 | NCI-H1975 | 0.621 | 0.638 | 0.451 | 0.546 | 0.619 | 0.387 | 0.461 | 0.334 | 0.441 | 0.323 | 0.229 |  | 0.139 | 0.124 | 0.793 | 0.793 | 0.417 | 0.26 | 
8 | NCI-H1993 | 0.666 | 0.658 | 0.591 | 0.727 | 0.604 | 1.11 | 1.1 | 0.945 | 1.29 | 0.761 | 0.634 | 0.605 | 0.439 | 0.55 | 0.565 | 0.501 | 0.538 | 0.537 | 1.03
9 | NCI-H2009 | 0.176 | 0.209 | 0.234 | 0.17 | 0.242 | 1.1 | 1.16 | 1.01 | 1.04 | 0.681 | 0.269 | 0.216 | 0.18 | 0.116 | 0.618 | 0.674 | 0.478 | 0.379 | 0.877
10 | NCI-H2023 | 0.387 | 0.429 | 0.362 | 0.415 | 0.454 | 1.13 | 1.04 | 1 | 1.07 | 0.419 | 0.17 | 0.197 | 0.122 | 0.0751 | 0.369 | 0.176 | 0.103 | 0.0879 | 0.666
11 | NCI-H2085 | 0.406 | 0.487 | 0.497 | 0.508 | 0.429 | 0.976 | 1.06 | 1.12 | 1.11 | 0.745 | 0.502 | 0.541 | 0.38 | 0.337 | 0.69 | 0.676 | 0.771 | 0.502 | 0.917
